Reference: patent US11510933B2, “Use of Pulsatilla chinensis extract in the preparation of drugs for treatment of viral and/or bacterial diseases” (priority 2018, dated 2022)
Marks after values point to notes of the source that are not given here.

Legend:
[1] = system: cow clinical endometritis; assay: treatment of cow clinical endometritis; type: in vivo, cows; details: n = 10
Procedure: Anemoside B4 injection prepared in example 3, with a concentration of 50 mg/mL; Anemoside B4 intrauterine injection prepared in example 5, with a concentration of 50 mg/mL.
Positive drug: doxycycline hydrochloride intrauterine injection (24 g/injection, produced by Zhengzhou Bairui Animal Pharmaceutical Co., Ltd., batch No.: 170901).
130 cows with disease were randomly divided into 13 groups, 10 cows for each group.
The cows selected in this experiment were all those with clinical endometritis. During the experiment, the temperature, spirit and diet of the cows were normal.
Administration by […] injection: Administrating anemoside B4 by intramulscular injection, twice per day, one in the morning and another in the evening, for successive four days;
Administration by intrauterine infusion: administrating anemoside B4 and positive drug doxycycline hydrochloride by intrauterine infusion, once every other day, for 4 times.
A blank control group was set up in different administration routes, and the same dose of normal saline was administered.

canine acute nephritis = assay: treatment of canine acute nephritis; type: in vivo, dogs; details: 14 days, n = 10; for Positive rate of white blood cell (+++, %): urine
Procedure: Anemoside B4 injection prepared in example 3, with a concentration of 50 mg/mL.
Dogs suffering from acute nephritis are cases received by various pet hospitals in Chengdu city.
The sick dogs are characterized by loss of appetite, indigestion, depression, and a slight increase in body temperature.
Anemoside B4 injection was intravenously injected, 2 mL/time in low-dose group, 4 mL/time in medium-dose group, 8 mL/time in high-dose group, once a day; anemoside B4 injection was intramuscularly injected, 1 mL/time in low-dose group, 2 mL/time in the middle-dose group, 4 mL/time in the high-dose group, twice a day; the treatment was kept for 14 days.

[2] = high-dose, intramuscular injection 30 mL/time (50 mg/mL), twice per day, 4 days
[3] = high-dose, intrauterine infusion 30 mL/time (50 mg/mL), once every other day, 4 times
[4] = high-dose, intravenous injection 60 mL/time (50 mg/mL)
[5] = low-dose, intramuscular injection 10 mL/time (50 mg/mL), twice per day, 4 days
[6] = low-dose, intrauterine infusion 10 mL/time (50 mg/mL), once every other day, 4 times
[7] = low-dose, intravenous injection 20 mL/time (50 mg/mL)
[8] = medium-dose, intramuscular injection 20 mL/time (50 mg/mL), twice per day, 4 days
[9] = medium-dose, intrauterine infusion 20 mL/time (50 mg/mL), once every other day, 4 times
[10] = medium-dose, intravenous injection 40 mL/time (50 mg/mL)
[11] = high-dose, intramuscular injection 4 mL/time (50 mg/mL), twice a day
[12] = high-dose, intravenous injection 8 mL/time (50 mg/mL), once a day
[13] = low-dose, intramuscular injection 1 mL/time (50 mg/mL), twice a day
[14] = low-dose, intravenous injection 2 mL/time (50 mg/mL), once a day
[15] = medium-dose, intramuscular injection 2 mL/time (50 mg/mL), twice a day
[16] = medium-dose, intravenous injection 4 mL/time (50 mg/mL), once a day

C=C(C)[C@@H]1CC[C@]2(C(=O)O[C@@H]3O[C@H](CO[C@@H]4O[C@H](CO)[C@@H](O[C@@H]5O[C@@H](C)[C@H](O)[C@@H](O)[C@H]5O)[C@H](O)[C@H]4O)[C@@H](O)[C@H](O)[C@H]3O)CC[C@]3(C)[C@H](CC[C@@H]4[C@@]5(C)CC[C@H](O[C@@H]6OC[C@H](O)[C@H](O)[C@H]6O[C@@H]6O[C@@H](C)[C@H](O)[C@@H](O)[C@H]6O)[C@@](C)(CO)[C@@H]5CC[C@]43C)[C@H]12 [anemoside B4]
Mean time of first estrus after medication [1, 2]: 25 ± 5.5 days
Oestrus rate [1, 2]: 65* %
Pregnancy rate in three estrous periods after delivery [1, 2]: 56* %
Mean time of first estrus after medication [1, 3]: 23 ± 6.2 days
Oestrus rate [1, 3]: 78* %
Pregnancy rate in three estrous periods after delivery [1, 3]: 75* %
Mean time of first estrus after medication [1, 4]: 24 ± 5.2 days
Oestrus rate [1, 4]: 68* %
Pregnancy rate in three estrous periods after delivery [1, 4]: 58* %
Mean time of first estrus after medication [1, 5]: 27 ± 5.8 days
Oestrus rate [1, 5]: 54%
Pregnancy rate in three estrous periods after delivery [1, 5]: 42%
Mean time of first estrus after medication [1, 6]: 25 ± 5.4 days
Oestrus rate [1, 6]: 64%
Pregnancy rate in three estrous periods after delivery [1, 6]: 52%
Mean time of first estrus after medication [1, 7]: 27 ± 6.4 days
Oestrus rate [1, 7]: 57%
Pregnancy rate in three estrous periods after delivery [1, 7]: 46%
Mean time of first estrus after medication [1, 8]: 26 ± 4.6 days
Oestrus rate [1, 8]: 60%
Pregnancy rate in three estrous periods after delivery [1, 8]: 52%
Mean time of first estrus after medication [1, 9]: 24 ± 7.3 days
Oestrus rate [1, 9]: 74* %
Pregnancy rate in three estrous periods after delivery [1, 9]: 70* %
Mean time of first estrus after medication [1, 10]: 26 ± 4.3 days
Oestrus rate [1, 10]: 63%
Pregnancy rate in three estrous periods after delivery [1, 10]: 52%
Body temperature (canine acute nephritis; [11]): 39.0 ± 0.2 °C
Mortality rate (canine acute nephritis; [11]): 50%
Positive rate of urine protein (+++, %) (canine acute nephritis; [11]): 60%
Urine specific gravity (canine acute nephritis; [11]): 1.064 ± 0.02
Body temperature (canine acute nephritis; [12]): 38.5 ± 0.4 °C
Mortality rate (canine acute nephritis; [12]): 30%
Positive rate of urine protein (+++, %) (canine acute nephritis; [12]): 30%
Urine specific gravity (canine acute nephritis; [12]): 1.003 ± 0.01
Body temperature (canine acute nephritis; [13]): 39.5 ± 0.3 °C
Mortality rate (canine acute nephritis; [13]): 60%
Positive rate of urine protein (+++, %) (canine acute nephritis; [13]): 80%
Urine specific gravity (canine acute nephritis; [13]): 1.123 ± 0.01
Body temperature (canine acute nephritis; [14]): 38.7 ± 0.5 °C
Mortality rate (canine acute nephritis; [14]): 50%
Positive rate of urine protein (+++, %) (canine acute nephritis; [14]): 50%
Urine specific gravity (canine acute nephritis; [14]): 1.017 ± 0.25
Body temperature (canine acute nephritis; [15]): 39.3 ± 0.4 °C
Mortality rate (canine acute nephritis; [15]): 60%
Positive rate of urine protein (+++, %) (canine acute nephritis; [15]): 70%
Urine specific gravity (canine acute nephritis; [15]): 1.094 ± 0.04
Body temperature (canine acute nephritis; [16]): 38.8 ± 0.3 °C
Mortality rate (canine acute nephritis; [16]): 40%
Positive rate of urine protein (+++, %) (canine acute nephritis; [16]): 40%
Urine specific gravity (canine acute nephritis; [16]): 1.005 ± 0.09
Positive rate of white blood cell (+++, %) (canine acute nephritis; [11]): 70%
Positive rate of white blood cell (+++, %) (canine acute nephritis; [12]): 30%
Positive rate of white blood cell (+++, %) (canine acute nephritis; [13]): 80%
Positive rate of white blood cell (+++, %) (canine acute nephritis; [14]): 60%
Positive rate of white blood cell (+++, %) (canine acute nephritis; [15]): 80%
Positive rate of white blood cell (+++, %) (canine acute nephritis; [16]): 40%
